Patent US9150579B2, “Selective PI3K delta inhibitors” (Rhizen Pharmaceuticals SA, priority 2012, dated 2015)
“Also recorded” adds a separate entry of the source.

Columns and labels:
[1] = Metabolic stability in mouse liver microsomes; format: in vitro ADME; details: 1 μM test item, 60 minutes, NADPH
Method: (§1) Metabolic stability studies were conducted using mouse, rat, and human liver microsomes. The protocol for the studies with mouse, rat, and human liver microsomes (all from BD Gentest, USA) is provided below. In brief, 0.4 mg protein was preincubated with 2 mM NADPH (cofactor) in phosphate buffer (pH˜7.4) for 15 min at 37° C. and then added with 1 μM test item and incubated further for 60 minutes in triplicate. The reaction mixture was terminated with methanol containing an internal standard and centrifuged further to analyze the test item remaining in the supernatant by LC-MS/MS. The percent parent compound remaining was calculated in comparison with similar samples terminated at 0 minutes.

[2] = Metabolic stability in rat liver microsomes; format: in vitro ADME; details: 1 μM test item, 60 minutes, NADPH
Method: as §1

[3] = Metabolic stability in human liver microsomes; format: in vitro ADME; details: 1 μM test item, 60 minutes, NADPH
Method: as §1

[4] = system: AKT phosphorylation in THP-1, HL-60, MOLT-4, RPMI-8226, or DLBCL cells; experiment: Assay 3: Inhibition of AKT phosphorylation in leukemic cell lines; format: cell-based; details: 48 hours, Western Blotting
Method: Inhibition of AKT phosphorylation in leukemic cell lines: THP-1, HL-60, MOLT-4, RPMI-8226, or DLBCL cells were incubated with desired concentrations of compound for 48 hours. Cells were lysed and pAKT was determined by Western Blotting. Bands were quantified using ImageJ and normalized to actin.

[5] = system: leukemic cells; experiment: Assay 5: Apoptosis in leukemic cell lines (in situ Caspase 3 kit); format: cell-based; details: 24 hrs
Method: Apoptosis in leukemic cells was determined using an in situ Caspase 3 kit (Millipore, US) as outlined below: • Seed leukemic cells at a density of 1×10^6 cells/well in a 6 well plate • Add test compound/DMSO at desired concentrations • Incubate the plate for 24 hrs at 37° C. in 5% CO2 incubator • Collect cells in a 2 ml centrifuge tube • Add 1.6 μL of freshly prepared 5× FLICA reagent and mix cells by slightly flicking the tubes • Incubate tubes for 1 hour at 37° C. under 5% CO2 • Add 2 ml of 1× wash buffer to each tube and mix • Centrifuge cells at <400×g for 5 minutes at room temperature. • Carefully remove and discard supernatant, and gently vortex cell pellet to disrupt any cell-to-cell clumping. • Resuspend cell pellet in 300 ul of 1× wash buffer • Place 100 μL of each cell suspension into each of two wells of a black microtiter plate. Avoid creation of bubbles. • Read […] of each microwell using an excitation wavelength of 490 nm and an emission wavelength of 520 nm • Percent increase in caspase-3 activity manifested by an increase in fluorescence compared to the control blank is to be calculated.

[6] = system: pAKT in AML patient bone marrow leukemic cells; experiment: Assay 6-II: pAKT analysis of AML patient bone marrow sample (pAKT ELISA); format: cell-based, human
Method: 6-II: pAKT analysis of AML patient bone marrow sample using pAKT ELISA kit: Mononuclear cells were extracted by the Ficoll method and seeded in plates. The cells were treated by different compounds for 48 hrs before they were analyzed by pAKT ELISA kit following the product protocol. Briefly, 1×10^6 cells were transferred into an ELISA kit well and lyzed with 10 μL 5× Cell Lysis Mix (phospho-AKT 1/2/3 (Ser473) InstantOne™ ELISA Kit, eBioscience, 85-86042). The cells were then incubated with 50 μl antibody cocktail for 1 hr at room temp. on a microplate shaker (˜300 rpm). After incubating with detection reagent, the result was measured using a SpectraMAX Plus microplate spectrophotometer set at 450 nm.

[7] = system: AML patient bone marrow leukemic cells; experiment: Assay 6-I: Flow cytometry analysis of apoptotic induction in AML patient bone marrow leukemic cells; format: cell-based, human
Method: 6-I: Flow cytometry analysis of apoptotic induction in AML patient bone marrow leukemic cells upon compound treatment using Annexin V and 7-AAD staining: Mononuclear cells were extracted by the Ficoll method and seeded in plates. The cells were treated by different compounds for 48 hrs before they were analyzed by flow cytometry. After washing with PBS, 1×10^5 cells were stained by Annexin V-APC and 7-AAD. Annexin V positive staining measures total apoptotic cells, including early and late apoptotic cells. For Annexin V positive cells, 7-AAD negative signal reflects early apoptotic cells.

[8] = system: AML patient bone marrow leukemic cells; experiment: Assay 6-III: Cell proliferation analysis of AML patient bone marrow sample (MTS); format: cell-based, human
Method: 6-III: Cell proliferation analysis of AML patient bone marrow sample using MTS assay: Mononuclear cells were extracted by the Ficoll method and seeded in plates. The cells were treated by different compounds for 48 hrs and 72 hrs before they were analyzed by MTS assay following product instruction. Briefly, 20 μL of the MTS solution was added into each well containing the 100 μL cell suspension, followed by incubation for 4 hours at 37° C., in 95% humidity with presence of 5% CO2. The absorbance of 490 nm (A490) was read using SpectraMAX Plus microplate spectrophotometer.

[9] = system: Human Multiple Myeloma Cells; experiment: Assay 6a: Screening for anticancer activity in human multiple myeloma cells; format: cell-based; details: primary multiple myeloma patient cells
Method: Samples were taken from two patients with newly diagnosed stage II IgG Kappa and stage III IgG Lambd restricted disease. This screening was performed by inducing apoptosis using doses and times determined from the MTT assay. 1-5×10^5 cells were collected by centrifugation. The cells were re-suspended in 500 μl of 1× Binding Buffer. 5 μl of Annexin V-FITC and 5 μl of propidium iodide were added. The cells were incubated at room temperature for 5 minutes in the dark.
Quantification by flow cytometry: Annexin V-FITC binding was analyzed by flow cytometry (Ex=488 nm; Em=530 nm) using FITC signal detector (usually FL1) and PI staining using a phycoerythrin emission signal detector (usually FL2). The results are shown below and in FIG. 1.

[10] = system: immortalized leukemic cells (B, T, and monocytic cell lines); experiment: Assay 7: Screening for anticancer activity in various leukemic cell lines (MTT); format: cell-based; details: majority of B, 72-96 h, read-out: concentration for 50% growth inhibition
Method: Proliferation of immortalized leukemic cells representative of various indications was determined by a MTT (3-(4,5-Dimethylthiazol-2-yl)-2,5-diphenyl tetrazolium bromide) assay.

[11] = system: Primary CLL cells; experiment: Assay 8: Screening for anticancer activity in human CLL cells; format: cell-based
Method: After 72 hours of incubation, CLL cells were evaluated for cytotoxicity using the colorimetric MTS reagent. Phosphorylated Akt (S473) was measured by flow cytometry after one hour of incubation of test compound and ten minutes of incubation with anti-IgM or anti-IgD. Akt phosphorylation was quantified by median fluorescent intensity (MFI). Of the seven CLL patient samples used for experiments, five had mutated IGHV, five had 13 q deletion or normal cytogenetics determined by fluorescent in situ hybridization, three were ZAP-70 negative, and seven were CD38 negative. IgM expression ranged between 13% and 90%, whereas IgD expression was uniformly elevated.

[12] = system: PI3Kδ signalling in basophils; experiment: Assay 4: Inhibition of PI3Kδ signalling in basophils from human whole blood (anti-FcεR1 induced CD63 expression); details: read-out: EC50, inhibition of anti-FcεR1 mediated CD63 expression
Method: PI3Kδ signalling in basophils manifested by an alteration of anti-FcεR1 induced CD63 expression is a useful pharmacodynamic marker determined using the Flow2CAST® kit (Buhlmann Laboratories, Switzerland). Briefly, it involves the following steps: • Mix the anti-coagulated blood sample by inverting the venipuncture tube several times • Prepare fresh and pyrogen-free 3.5 ml polypropylene or polystyrene tubes suitable for Flow Cytometry measurements • Add 49 μl of patient's whole blood to each tube. • Add 1 μl of 10% DMSO (background) or compound (10% DMSO) to the assigned tubes and mix gently. Incubate at room temperature for 15 min • Pipette 50 μl of the Stimulation buffer (background) or anti-FcεRI Ab to each tube • Add 100 μl of Stimulation Buffer to each tube • Mix gently. […] (using an incubator will take about 10 minutes longer incubation time due to less efficient heat transfer) • Add 2 ml pre-warmed (18-28° C.) Lysing Reagent to each tube, mix gently • Incubate for 5-10 minutes at 18-28° C. • Centrifuge the tubes for 5 minutes at 500×g • Decant the supernatant by using blotting paper • Resuspend the cell pellet with 300-800 μl of Wash Buffer • Vortex gently and acquire the data on the flow cytometer within the same day. • Percent CD63 positive cells within the gated basophil population are to be determined in different treatment groups and normalized to vehicle control.

## CC(C)Oc1ccc(-c2nn([C@@H](C)c3oc4ccc(F)cc4c(=O)c3-c3cccc(F)c3)c3ncnc(N)c23)cc1F [Compound B1, (S)-2-(1-(4-amino-3-(3-fluoro-4-isopropoxyphenyl)-1H-pyrazolo[3,4-d]pyrimidin-1-yl)ethyl)-6-fluoro-3-(3-fluorophenyl)-4H-chromen-4-one]
[1]
  Metabolic stability in liver microsomes, Mouse (percent parent compound remaining): 36.6%
[2]
  Metabolic stability in liver microsomes, Rat (percent parent compound remaining): 23.1%
[3]
  Metabolic stability in liver microsomes, Human (percent parent compound remaining): 74.9%
[4]
  inhibition at 1 µM: 50 to 90%
[5]
  Caspase-3 activity: dose-dependently induced Caspase-3 activity
[6]
  AKT phosphorylation (dose dependence): dose dependent reduction
[6]; Homo sapiens, Bone marrow cell, 0.3 μM, 48 hrs
  inhibition at 0.3 µM: > 50%
[7]
  number of apoptotic cells: concomitant increase in the number of apoptotic cells
[8]
  cell viability / proliferation: dose dependent reduction in proliferation; also recorded: Dose dependent reduction in cell viability
[9]; Homo sapiens, Multiple myeloma cell, 3.0 μM, read-out: inhibition of PAKT
  inhibition at 3 µM: > 75%
[9]
  cell viability: Dose dependent reduction in cell viability.
[10]
  IC50: 500 to 7500 nM
[11]; 48 hours, 0.1 and 25.6 μM
  apoptosis (caspase-3+/7AAD+): significantly induced apoptosis
[11]; 72 hours, 0.1 and 25.6 μM
  cytotoxicity (MTS): significantly induced
[11]; one hour compound, anti-IgM or anti-IgD, flow cytometry MFI
  Akt phosphorylation (S473) induced by anti-surface immunoglobulin: significantly abrogated this effect and returned Akt phosphorylation to baseline
[12]
  EC50: ≤ 100 nM
